Patent US20240190841A1, “MODULATORS OF BCL6 PROTEOLYSIS AND ASSOCIATED METHODS OF USE” (Arvinas Operations, Inc., priority 2022, published 2024)

Target: T1, BCL6 (Homo sapiens, UniProt P41182)
T1 construct: endogenous in cells; host or cells: T47D breast cancer epithelial cells
Test: Immunofluorescence high content imaging of BCL6 degradation in T47D cells
Format: cell-based
Conditions: T47D breast cancer epithelial cells, 3 days incubation
Experimental: Immunofluorescence Protocol for High Content Imaging of BCL6
T47D cells were seeded in 100 μl volume of RPMI11640-10% FBS in a 96-well black/clear bottom plates for adherent lines (Corning #3904).
Day 1. T47D breast cancer epithelial cells were seeded at a density so that confluence is ˜70-90% at endpoint. Cells were seeded at 7K/0.1 mL/well the morning prior to the addition of exemplary bifunctional degradation compounds.
Day 2. Prepare an 11 point 3-fold serial dilution of exemplary bifunctional compound in DMSO and aliquot an appropriate volume to cell growth media to generate a 2× final concentration of exemplary bifunctional compound. Add an equal volume (0.1 ml) of 2× exemplary bifunctional compound/media mix to previously plated cells, for a final top concentration in aqueous cell growth media of 0.1 or 1 μM. Incubate for 3 days at 37° C., 5% CO2.
Day 5 Immunofluorescence. Discard cell media. Wash wells with 200 μl of room temperature phosphate-buffered saline (PBS). Prepared 4% paraformaldehyde (PFA) from 16% PFA (Electron Microscopy Sciences #15710) using 1×PBS. Fifty μL of 4% PF was added to each well and incubate for 15 minutes at room temperature to fix the cells. The PFA was aspirated and the cells washed twice with PBS (200 μL)).
Prepared 0.1% Triton X-100 in PBS using 10% triton X-100 stock. The cells were permeabilized by adding 100 μL of the 0.1% Triton X-100 in PBS to each well to permeabilize cells and incubating at room temperature for 15 minutes. Cells were washed twice with PBS.
Prepared 3% BSA/PBS (from Thermofisher #37515 Blocker BSA in TBS, 10%), and 100 μL was added to each well. The cells were incubated for at least 1 hour at room temperature.
Prepared 1% BSA/PBS using Blocker BSA/PBS, and the 3% BSA/PBS removed from the wells.
For no primary antibody controls, 50 μL 1% BSA/PBS was added.
Primary antibody (BCL6 Rb Ab, CST-14895, Cell Signaling) was diluted 1:300 in 1% BSA/PBS using Blocker BSA/PBS.
Fifty μl of primary antibody added to all remaining wells (i.e., all wells other than the primary antibody controls) and the cells were incubated overnight at 4° C. with slow orbital movement.
Day 6. Contents of the wells was removed and the cells washed four times with 200 μL PBS. 1% BSA/PBS was prepared using Blocker BSA in PBS.
Diluted secondary antibody goat anti-Rb IgG Alexa-488 1:1000, and cell mask-Alexa-647 1:3000 in 1% BSA/PBS in the same mix. Add 50 μL to each well and incubate at room temperature for 1 hour in the dark.
Cells were washed three times with 200 μL PBS, and then incubated for 10 minutes with 100 μL Hoechst dye at 1 μg/mL (20 mM stock) to stain cell nuclei. Wells were then washed with 200 μl PBS, and 100 μL of PBS was added to each well and the plate covered plate with a plastic opaque cover. Plates were stored at […] and covered in aluminum foil until imaged.
Plates were equilibrated to room temperature prior to reading. The bottom of the plate was wiped with 70% isopropanol immediately prior to imaging.
Imaging: • 10×, 4 fields/well, include Top hat smoothing in the analysis protocol.
Supplies/Reagents: • 16% paraformaldehyde: Electron Microscopy Sciences #15710 • Hoechst: Thermofisher #62249 • Blocker BSA in PBS, 10%: Thermofisher #37515 • Blocker BSA in TBS, 10%: Thermofisher #37520 • Goat anti-rabbit or mouse AlexaFluor-488: Thermofisher #A11008 • Cell mask deep red AlexaFluor-647: Thermofisher #C10046 • Wash buffer, PBS: 20×PBS, Thermofisher

SMILES	DC50	Dmax
CNC(=O)COc1cc2cc(Nc3nc(N4CCC(O[C@H]5C[C@H](N6CCN(c7ccc8c(c7)n(C7CCC(=O)NC7=O)c(=O)n8C)CC6)C5)CC4)ncc3Cl)ccc2n(C(C)C)c1=O (stereo partly drawn) [Compound 11, 2-({6-[(5-chloro-2-{4-[(1r,3r)-3-{4-[3-(2,6-dioxopiperidin-3-yl)-1-methyl-2-oxo-2,3-dihydro-1H-1,3-benzodiazol-5-yl]piperazin-1-yl}cyclobutoxy]piperidin-1-yl}pyrimidin-4-yl)amino]-2-oxo-1-(propan-2-yl)-1,2-dihydroquinolin-3-yl}oxy)-N-methylacetamide]	10 to 50 nM	< 50%
CNC(=O)COc1cc2cc(Nc3nc(N4CCC(O[C@H]5C[C@H](N6CCN(c7ccc8c(c7)n(C(C)C)c(=O)n8C7CCC(=O)NC7=O)CC6)C5)CC4)ncc3Cl)ccc2n(C(C)C)c1=O (stereo partly drawn) [Compound 12, 2-({6-[(5-chloro-2-{4-[(1r,3r)-3-{4-[1-(2,6-dioxopiperidin-3-yl)-2-oxo-3-(propan-2-yl)-2,3-dihydro-1H-1,3-benzodiazol-5-yl]piperazin-1-yl}cyclobutoxy]piperidin-1-yl}pyrimidin-4-yl)amino]-2-oxo-1-(propan-2-yl)-1,2-dihydroquinolin-3-yl}oxy)-N-methylacetamide]	< 10 nM	≥ 70%
CNC(=O)COc1cc2cc(Nc3nc(N4CCC(O[C@H]5C[C@H](N6CCN(c7ccc8c(c7)n(C)c(=O)n8C7CCC(=O)NC7=O)[C@H](C)C6)C5)CC4)ncc3Cl)ccc2n(C(C)C)c1=O (stereo partly drawn) [Compound 13, 2-({6-[(5-chloro-2-{4-[(1r,3r)-3-[(3R)-4-[1-(2,6-dioxopiperidin-3-yl)-3-methyl-2-oxo-2,3-dihydro-1H-1,3-benzodiazol-5-yl]-3-methylpiperazin-1-yl]cyclobutoxy]piperidin-1-yl}pyrimidin-4-yl)amino]-2-oxo-1-(propan-2-yl)-1,2-dihydroquinolin-3-yl}oxy)-N-methylacetamide]	< 10 nM	≥ 70%
CNC(=O)COc1cc2cc(Nc3nc(N4CCC(O[C@H]5C[C@H](N6CCN(c7cc8c(cn7)n(C7CCC(=O)NC7=O)c(=O)n8C)CC6)C5)CC4)ncc3Cl)ccc2n(C(C)C)c1=O (stereo partly drawn) [Compound 14, 2-({6-[(5-chloro-2-{4-[(1r,3r)-3-{4-[3-(2,6-dioxopiperidin-3-yl)-1-methyl-2-oxo-1H,2H,3H-imidazo[4,5-c]pyridin-6-yl]piperazin-1-yl}cyclobutoxy]piperidin-1-yl}pyrimidin-4-yl)amino]-2-oxo-1-(propan-2-yl)-1,2-dihydroquinolin-3-yl}oxy)-N-methylacetamide]	< 10 nM	50 to 70%
CNC(=O)COc1cc2cc(Nc3nc(N4CCC(O[C@H]5C[C@H](N6CCN(c7cc8c(cc7OC)n(C7CCC(=O)NC7=O)c(=O)n8C)CC6)C5)CC4)ncc3Cl)ccc2n(C(C)C)c1=O (stereo partly drawn) [Compound 15, 2-({6-[(5-chloro-2-{4-[(1r,3r)-3-{4-[1-(2,6-dioxopiperidin-3-yl)-6-methoxy-3-methyl-2-oxo-2,3-dihydro-1H-1,3-benzodiazol-5-yl]piperazin-1-yl}cyclobutoxy]piperidin-1-yl}pyrimidin-4-yl)amino]-2-oxo-1-(propan-2-yl)-1,2-dihydroquinolin-3-yl}oxy)-N-methylacetamide]	< 10 nM	50 to 70%
CNC(=O)COc1cc2cc(Nc3nc(N4CCC(O[C@H]5C[C@H](N6CCN(c7cnc8c(c7)n(C)c(=O)n8C7CCC(=O)NC7=O)CC6)C5)CC4)ncc3Cl)ccc2n(C(C)C)c1=O (stereo partly drawn) [Compound 16, 2-({6-[(5-chloro-2-{4-[(1r,3r)-3-{4-[3-(2,6-dioxopiperidin-3-yl)-1-methyl-2-oxo-1H,2H,3H-imidazo[4,5-b]pyridin-6-yl]piperazin-1-yl}cyclobutoxy]piperidin-1-yl}pyrimidin-4-yl)amino]-2-oxo-1-(propan-2-yl)-1,2-dihydroquinolin-3-yl}oxy)-N-methylacetamide]	< 10 nM	50 to 70%
